Source: patent publication US9139568B2 (Merck Patent GmbH, priority 2011, dated 2015)

target: P70S6K (Homo sapiens (Human), UniProt P23443, T412E); assay: P70S6K Enzyme Assay; assay type: biochemical; settings: P70S6K T412E mutant, 24 μM ATP, mobility shift (Caliper)
Procedure: P70S6K inhibitor compounds are diluted and plated in 96 well plates. […] The reaction is incubated for 90 min at 25° C., before the addition of 10 mM EDTA to stop the reaction. The proportion of substrate and product (phosphorylated) peptide is analysed on a Caliper Life Sciences Lab Chip 3000, using a pressure of −1.4 psi, and upstream and downstream voltages of −3000 and −700 respectively. Product peaks are resolved before substrate peaks on the resulting chromatograms.

Chain of P70S6K (P23443 1-421 T412E): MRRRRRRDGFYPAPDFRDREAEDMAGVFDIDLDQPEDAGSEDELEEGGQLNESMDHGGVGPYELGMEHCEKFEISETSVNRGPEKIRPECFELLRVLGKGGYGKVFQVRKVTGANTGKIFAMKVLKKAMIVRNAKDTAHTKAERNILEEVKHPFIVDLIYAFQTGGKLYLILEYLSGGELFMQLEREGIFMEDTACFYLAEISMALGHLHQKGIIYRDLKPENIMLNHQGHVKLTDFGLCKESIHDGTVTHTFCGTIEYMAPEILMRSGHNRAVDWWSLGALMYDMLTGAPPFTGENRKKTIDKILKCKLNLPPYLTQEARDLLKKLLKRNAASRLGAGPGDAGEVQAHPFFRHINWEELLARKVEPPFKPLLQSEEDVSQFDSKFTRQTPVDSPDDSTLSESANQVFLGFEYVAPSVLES

SMILES | IC50 [nM]
CNC[C@@H](Nc1ccc(C(N)=O)c2ncccc12)c1cccc(F)c1 [Example 16, (S)-5-((1-(3-fluorophenyl)-2-(methylamino)ethyl)amino)quinoline-8-carboxamide] | > 1000
NC(=O)c1ccc(N2CC[C@](N)(C(=O)Nc3ccccc3)C2)c2cncnc12 (single isomer, unassigned) [Example 85] | 11500
COc1ccccc1N1CCN(c2ccc(C(N)=O)c3ncncc23)CC1 [Example 122, 5-[4-(2-methoxyphenyl)-piperazin-1-yl]-quinazoline-8-carboxylic acid amide] | 11000
NC(=O)c1ccc(N2CCC(NC(=O)Cc3ccccc3)C2)c2cncnc12 (racemic) [Example 47, 5-(3-(2-phenylacetamido)pyrrolidin-1-yl)quinazoline-8-carboxamide] | 7900
NC(=O)c1ccc(NCCCc2ccccc2)c2cccnc12 [Example 41, 5-(Phenylpropylamino)-quinoline-8-carboxamide] | > 1000
NC(=O)c1ccc(NC(=O)C(N)c2ccccc2)c2cccnc12 (racemic) [Example 29, 5-(2-amino-2-phenylacetamido)quinoline-8-carboxamide] | > 1000
NC(=O)c1ccc(N2CCN(c3ccc(Cl)cc3)CC2)c2cncnc12 [Example 93, 5-[4-(4-chloro-phenyl)-piperazin-1-yl]-quinazoline-8-carboxylic acid amide] | 1000
NC(=O)c1ccc(N[C@@H]2CNC[C@H]2c2cccc(OC(F)(F)F)c2)c2cccnc12 (single isomer, unassigned) [Example 23] | 690
NC(=O)c1ccc(N2CCC(N)(C(=O)Nc3ccccc3)C2)c2cncnc12 (racemic) [Example 15, 5-(3-amino-3-(phenylcarbamoyl)pyrrolidin-1-yl)quinazoline-8-carboxamide] | 2300
NC(=O)c1ccc(N2CC[C@H](c3ccc(F)cc3)[C@@H](N)C2)c2cncnc12 (racemic) [Example 87, 5-[(3R,4R)-3-Amino-4-(4-fluoro-phenyl)-piperidin-1-yl]-quinazoline-8-carboxylic acid amide] | 7100
NC(=O)c1ccc(NCc2ccccc2)c2cccnc12 [Example 42, 5-(Benzylamino)quinoline-8-carboxamide] | 680
NC(=O)c1ccc(NC(CN2CCCC2)c2ccccc2)c2cccnc12 (stereo not drawn) [Example 39] | > 1000
NC(=O)c1ccc(NCC2(C(=O)Nc3ccccc3)CCNCC2)c2cncnc12 [Example 14, 5-(((4-(phenylcarbamoyl)piperidin-4-yl)methyl)amino)quinazoline-8-carboxamide] | > 1000
NC(=O)c1ccc(N2CC[C@@](N)(C(=O)Nc3ccccc3)C2)c2cncnc12 (single isomer, unassigned) [Example 84] | 2150
NC(=O)c1ccc(N2CCC(N)(CNC(=O)c3ccc(F)cc3O)C2)c2cncnc12 (racemic) [Example 10, 5-(3-amino-3-((4-fluoro-2-hydroxybenzamido)methyl)pyrrolidin-1-yl)quinazoline-8-carboxamide] | > 1000
NC(=O)c1ccc(N2CC[C@H](c3cccc(F)c3)[C@H](N)C2)c2cncnc12 (racemic) [Example 88, 5-[(3S,4R)-3-Amino-4-(3-fluoro-phenyl)-piperidin-1-yl]-quinazoline-8-carboxylic acid amide] | 17100
NC(=O)c1ccc(NCc2cc(F)c(F)c(F)c2)c2cccnc12 [Example 36, 5-(3,4,5-trifluorobenzylamino)-quinoline-8-carboxamide] | > 1000
NC(=O)c1ccc(NCc2ccc(F)c(C(F)(F)F)c2)c2cccnc12 [Example 37, 5-(4-Fluoro-3-trifluoromethylbenzylamino)-quinoline-8-carboxamide] | 695
NC(=O)c1ccc(NCc2ccc(Cl)c(C(F)(F)F)c2)c2cccnc12 [Example 38, 5-(4-Chloro-3-trifluoromethylbenzylamino)-quinoline-8-carboxamide] | > 1000
NC(=O)c1ccc(NCCc2ccccc2)c2cccnc12 [Example 40, 5-(Phenylethylamino)-quinoline-8-carboxamide] | > 1000
NCC1(C(=O)Nc2ccccc2)CCCN(c2ccc(C(N)=O)c3ncncc23)C1 (racemic) [Example 11, 5-(3-(aminomethyl)-3-(phenylcarbamoyl)piperidin-1-yl)quinazoline-8-carboxamide] | > 1000
NC(=O)c1ccc(N2CCC(N)(C(=O)Nc3ccc(F)c(F)c3)C2)c2cncnc12 (racemic) [Example 44, 5-(3-amino-3-((3,4-difluorophenyl)carbamoyl)pyrrolidin-1-yl)quinazoline-8-carboxamide] | 1300
NC(=O)c1ccc(N2CCNC(c3ccccc3)C2)c2cccnc12 (racemic) [Example 18, 5-(3-phenylpiperazin-1-yl)quinoline-8-carboxamide] | 670
CN(C)CCN(Cc1ccccc1)C(=O)C1CCN(c2ccc(C(N)=O)c3ncncc23)C1 (racemic) [Example 49, 5-(3-(benzyl(2-(dimethylamino)ethyl)carbamoyl)pyrrolidin-1-yl)quinazoline-8-carboxamide] | 1600
NC(=O)c1ccc(NCc2ccc(F)c(F)c2)c2cccnc12 [Example 35, 5-(3,4-Difluorobenzylamino)-quinoline-8-carboxamide] | > 1000
NC(=O)c1ccc(N2CCC(N)(C(=O)Nc3cccc(F)c3)C2)c2cncnc12 (racemic) [Example 45, 5-(3-amino-3-((3-fluorophenyl)carbamoyl)pyrrolidin-1-yl)quinazoline-8-carboxamide] | 2000
NC(=O)c1ccc(N2CCC(N)(C(=O)Nc3ccc(F)cc3)C2)c2cncnc12 (racemic) [Example 43, 5-[3-amino-3-[(4-fluorophenyl)carbamoyl]pyrrolidin-1-yl]quinazoline-8-carboxamide] | 1200

The next molecules have a lower IC50 than those just listed; values first:

IC50 [nM] | SMILES
31 | NC(=O)c1ccc(NC2CNC[C@@H]2c2cccc(OC(F)(F)F)c2)c2cccnc12 (single isomer, unassigned) [Example 22]
350 | NC(=O)c1ccc(NC2CNC[C@H]2c2cc(F)cc(Cl)c2)c2cccnc12 (stereo partly drawn) [Example 26, 5-(((4R)-4-(3-chloro-5-fluorophenyl)pyrrolidin-3-yl)amino)quinoline-8-carboxamide]
54 | NC(=O)c1ccc(N[C@@H]2CNCC[C@H]2c2ccc(C(F)(F)F)c(F)c2)c2cncnc12 (single isomer, unassigned) [Example 6]
380 | NC(=O)c1ccc(N2CCC(NC(=O)c3ccc(F)c(F)c3)C2)c2cncnc12 (racemic) [Example 50, 5-(3-(3,4-difluorobenzamido)pyrrolidin-1-yl)quinazoline-8-carboxamide]
350 | NC(=O)c1ccc(N2CCC(c3ccc(C(F)(F)F)cc3)C(N)C2)c2cncnc12 (racemic) [Example 83, 5-(3-amino-4-(4-(trifluoromethyl)phenyl)piperidin-1-yl)quinazoline-8-carboxamide]
140 | NC(=O)c1ccc(NCc2cccc(Cl)c2)c2cccnc12 [Example 34, 5-(3-Chlorobenzylamino)-quinoline-8-carboxamide]
290 | NC(=O)c1ccc(NC2CNC[C@@H]2C(=O)Nc2cccc(F)c2)c2cncnc12 (mixture of isomers) [Example 13, 5-((-4-((3-fluorophenyl)carbamoyl)pyrrolidin-3-yl)amino)quinazoline-8-carboxamide]
23 | NC(=O)c1ccc(N[C@@H]2CNC[C@@H]2c2cccc(OC(F)(F)F)c2)c2cccnc12 (racemic) [Example 24, 5-((-4-(3-(trifluoromethoxy)phenyl)pyrrolidin-3-yl)amino)quinoline-8-carboxamide]
578 | NC(=O)c1ccc(NC(=O)C2C[C@@H](c3ccccc3)CN2)c2cccnc12 (stereo partly drawn) [Example 28, 5-((4S)-4-phenylpyrrolidine-2-carboxamido)quinoline-8-carboxamide]
450 | NC(=O)c1ccc(N2CC[C@@H](CNC(=O)c3ccc(F)c(F)c3)C2)c2cncnc12 (single isomer, unassigned) [Example 115]
190 | NC(=O)c1ccc(NC2CNC[C@@H]2c2ccc3cccnc3c2)c2cccnc12 (mixture of isomers) [Example 17, 5-((-4-(quinolin-7-yl)pyrrolidin-3-yl)amino)quinoline-8-carboxamide]
260 | NC(=O)c1ccc(N2CCC(CNC(=O)c3ccc(F)cc3F)C2)c2cncnc12 (racemic) [Example 112, 5-{3-[(2,4-Difluoro-benzoylamino)-methyl]-pyrrolidin-1-yl}-quinazoline-8-carboxylic acid amide]
520 | NC(=O)c1ccc(N2CC[C@@](N)(C(=O)Nc3ccc(F)c(C(F)(F)F)c3)C2)c2cncnc12 (single isomer, unassigned) [Example 116]
510 | NC(=O)c1ccc(N2CCC(CNC(=O)c3cc(F)ccc3F)C2)c2cncnc12 (racemic) [Example 106, 5-(3-((2,5-difluorobenzamido)methyl)pyrrolidin-1-yl)quinazoline-8-carboxamide]
290 | NC(=O)c1ccc(N2CCC(CNC(=O)c3ccc(C(F)(F)F)cc3F)C2)c2cncnc12 (racemic) [Example 55, 5-(3-((2-fluoro-4-(trifluoromethyl)benzamido)methyl)pyrrolidin-1-yl)quinazoline-8-carboxamide]
120 | NC(=O)c1ccc(N2CCC(c3ccccc3)C(N)C2)c2cncnc12 (racemic) [Example 82, 5-(3-amino-4-phenylpiperidin-1-yl)quinazoline-8-carboxamide]
4.1 | NC(=O)c1ccc(NC2CNCCC2c2ccccc2)c2cncnc12 (racemic) [Example 3, 5-((4-phenylpiperidin-3-yl)amino)quinazoline-8-carboxamide]
9.9 | NC(=O)c1ccc(NC2CNCCC2c2ccc(C(F)(F)F)c(F)c2)c2cncnc12 (single isomer, unassigned) [Example 5]
